Test results reported in US11512087B2, “BRK inhibitory compound” (priority 2015, dated 2022).

Experiments:
Lck = Lck (Homo sapiens (Human), UniProt P06239); assay: Lck inhibitory activity (Z'-LYTE Kinase Assay Kit-Tyr 2 Peptide, FRET); format: biochemical
Method: The Lck activity was determined by using Fluorescence Resonance Energy Transfer (FRET) method.
A dilute solution (5 μL) of the compound of the present invention in dimethylsulfoxide (DMSO; Sigma-Aldrich Co. LLC) was added to a 96-well assay plate. In addition, Peptide/Kinase Buffer composed of DL-dithiothreitol (DTT; 2 mM), Tyr 2 Peptide (2 μM), Kinase Buffer and Lck was added to the assay plate, and the reaction solution was preincubated at 25° C. for 20 minutes. […] After incubation, Coloring Solution A (10 μL) composed of Coloring Reagent B and Coloring Buffer was added, and the reaction solution was incubated at 25° C. for 1 hour. Stop Reagent (10 μL) was added to each well such that the enzymatic reaction stopped. The fluorescent coloring of each well was measured on a fluorescent plate reader by using wavelengths of 445 nm and 520 nm. The ratio of phosphorylation was determined by a ratio of coloring at 445 nm to that at 520 nm according to the attached manual.
The inhibition rate (%) of the compound of the present invention was calculated according to the following Numerical Formula 2. Inhibition rate (%)={1−(AX−AB)/(AC−AB)}×100 [Numerical Formula 2]
AX: Ratio of phosphorylation at addition of the compound of the present invention
AB: Ratio of phosphorylation in blank
AC: Ratio of phosphorylation at addition of only DMSO

Syk kinase = Syk kinase (Homo sapiens (Human), UniProt P43405); assay: Syk inhibitory activity (mobility shift, QuickScout Screening Assist MSA); format: biochemical; conditions: read-out: Syk inhibitory activity (Inhibition rate at 1 μM of compound)
Method: The compound of the present invention was dissolved in DMSO to prepare a solution with a concentration of 100 times the test concentration of 1 μmol/L. The solution was further diluted 25-fold with Assay Buffer (20 mmol/L HEPES, 0.01% Triton X-100, 2 mmol/L DTT, pH 7.5) to give a test substance solution. With regard to a positive control substance (Staurosporine), a solution of the positive control substance was prepared in a similar manner.
Five microliters of a test substance solution with a concentration of four times prepared by using Assay Buffer, 5 μL of a solution of a substrate (Blk/Lyntide)/ATP/a metal (Mg) with a concentration of four times and 10 μL of a solution of Syk kinase with a concentration of two times were mixed in a well of a 384-well plate made of polypropylene, and the mixture was subjected to a reaction at room temperature for 1 hour (the final concentration of the substrate was 1,000 nmol/L, and the final concentration of ATP was 26 μmol/L). To the mixture, 60 μL of Termination Buffer (QuickScout Screening Assist MSA; Carna Biosciences, Inc.) was added to stop the reaction. The substrate peptide and the phosphorylated peptide in the reaction solution were separated, and were quantified. The kinase reaction was evaluated by a product ratio (P/(P+S)) calculated from a peak height (S) of the substrate peptide and a peak height (P) of the phosphorylated peptide.

Lck, sequence (P06239 whole entry, species assumed): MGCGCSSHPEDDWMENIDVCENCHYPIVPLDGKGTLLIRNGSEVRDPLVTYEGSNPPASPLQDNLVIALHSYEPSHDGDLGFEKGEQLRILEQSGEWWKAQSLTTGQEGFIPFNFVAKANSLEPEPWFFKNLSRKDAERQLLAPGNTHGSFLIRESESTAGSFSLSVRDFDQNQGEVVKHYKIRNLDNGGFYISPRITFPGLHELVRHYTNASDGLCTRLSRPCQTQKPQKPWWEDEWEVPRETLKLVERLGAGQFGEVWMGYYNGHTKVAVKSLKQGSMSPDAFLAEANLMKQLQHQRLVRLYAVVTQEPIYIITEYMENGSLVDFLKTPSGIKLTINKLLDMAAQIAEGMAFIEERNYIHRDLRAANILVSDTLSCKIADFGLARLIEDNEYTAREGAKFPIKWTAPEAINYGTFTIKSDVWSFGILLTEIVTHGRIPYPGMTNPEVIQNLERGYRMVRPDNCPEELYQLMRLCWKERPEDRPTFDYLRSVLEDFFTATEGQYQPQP

Cc1nn(C)cc1Nc1nc(N)c2c(-c3ccc4[nH]ccc4c3)nn(C(C)C)c2n1 [Example 1, N^6-(1,3-dimethyl-1H-pyrazol-4-yl)-3-(1H-indol-5-yl)-1-isopropyl-1H-pyrazolo[3,4-d]pyrimidine-4,6-diamine]
IC50 (Lck): > 10 µM
inhibition at 1 µM (Syk kinase): 0%

CC(C)n1cc(-c2ccc(C#N)c3[nH]ncc23)c2c(N)nc(Nc3ccc(S(C)(=O)=O)cc3F)nc21 [Example 13-1, 4-(4-Amino-2-{[2-fluoro-4-(methylsulfonyl)phenyl]amino}-7-isopropyl-7H-pyrrolo[2,3-d]pyrimidin-5-yl)-1H-indazole-7-carbonitrile]
IC50 (Lck): > 10 µM
inhibition at 1 µM (Syk kinase): 0%

CC(C)n1nc(-c2ccc(F)c3[nH]ncc23)c2c(N)nc(Nc3ccc(S(C)(=O)=O)cc3F)nc21 [Example 4-3, 3-(7-Fluoro-1H-indazol-4-yl)-N^6-[2-fluoro-4-(methylsulfonyl)phenyl]-1-isopropyl-1H-pyrazolo[3,4-d]pyrimidine-4,6-diamine]
IC50 (Lck): 2.5 µM
inhibition at 1 µM (Syk kinase): 0%
